Test results taken from the supplement of paper PMC10307832.

What was measured:
Assay in all cases: relative viability (nuclei count vs DMSO), 5 days (fraction); higher = more cells survive
[1] = compound: C/C(=N\NC(=S)N1CCC1)/C2=CC=CC=N2 + CC(=O)Nc1cccc(-n2c(=O)n(C3CC3)c(=O)c3c(Nc4ccc(I)cc4F)n(C)c(=O)c(C)c32)c1 [Trametinib] (partner 0.02 µM)
Procedure, shortened: (§1)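 After 5 days of treatment, lung cancer cells in 1536-well plates were fixed and stained in a single step (final 0.05% Triton X-100, 1% formaldehyde, 1 ug/ml Hoechst) and their nuclei counted on 4× images. Treatment had been applied by pin tool the day after seeding as one drug alone or as a fixed anchor-drug dose with five library-drug doses (not always all listed) in √10 steps. Relative viability is the nuclei count of treated wells divided by that of vehicle wells, and values are medians of duplicate plates.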

[2] = compound: C/C(=N\NC(=S)N1CCC1)/C2=CC=CC=N2 + COc1cccc2cc(-c3nc([C@H]4CC[C@H](C(=O)O)CC4)n4ncnc(N)c34)[nH]c12 [OSI-027] (partner 0.5 µM)
Procedure, shortened: as §1

[3] = compound: C/C(=N\NC(=S)N1CCC1)/C2=CC=CC=N2 + CS(=O)(=O)CCNCc1ccc(-c2ccc3ncnc(Nc4ccc(OCc5cccc(F)c5)c(Cl)c4)c3c2)o1 [Lapatinib] (partner 2 µM)
Procedure, shortened: as §1

[4] = compound: C/C(=N\NC(=S)N1CCC1)/C2=CC=CC=N2 + C[C@]1(O)C[C@@H](c2nc(-c3ccc4ccc(-c5ccccc5)nc4c3)c3c(N)nccn32)C1 [Linsitinib] (partner 1 µM)
Procedure, shortened: as §1

Row | Cell Line | relative viability ([1]; first compound 0.05 µM) | relative viability ([1]; first compound 0.1581 µM) | relative viability ([1]; first compound 0.5 µM) | relative viability ([1]; first compound 1.581 µM) | relative viability ([1]; first compound 5 µM) | relative viability ([2]; first compound 0.05 µM) | relative viability ([2]; first compound 0.1581 µM) | relative viability ([2]; first compound 0.5 µM) | relative viability ([2]; first compound 1.581 µM) | relative viability ([2]; first compound 5 µM) | relative viability ([3]; first compound 0.05 µM) | relative viability ([3]; first compound 0.1581 µM) | relative viability ([3]; first compound 0.5 µM) | relative viability ([3]; first compound 1.581 µM) | relative viability ([3]; first compound 5 µM) | relative viability ([4]; first compound 0.05 µM) | relative viability ([4]; first compound 0.1581 µM) | relative viability ([4]; first compound 0.5 µM) | relative viability ([4]; first compound 1.581 µM) | relative viability ([4]; first compound 5 µM)
1 | HCC-78 | 0.5 | 0.377 | 0.359 | 0.275 | 0.23 | 0.299 | 0.354 | 0.332 | 0.237 | 0.23 | 0.0064 | 0.211 | 0.226 | 0.158 | 0.178 | 0.299 | 0.251 | 0.189 | 0.161 | 0.175
2 | HCC-366 | 0.0818 | 0.0309 | 0.0211 | 0.0256 | 0.025 | 0.0452 | 0.0275 | 0.0339 | 0.0481 | 0.0279 | 0.0217 | 0.0257 | 0.0157 | 0.0217 | 0.0218 | 0.0558 | 0.0147 | 0.0179 | 0.0206 | 0.0189
3 | HCC-827 | 0.377 | 0.269 | 0.211 | 0.214 | 0.176 | 0.288 | 0.281 | 0.156 | 0.176 | 0.168 | 0.161 | 0.168 | 0.201 | 0.211 | 0.19 | 0.716 | 0.968 | 0.338 | 0.3 | 0.187
4 | HOP-62 | 0.216 | 0.212 | 0.112 | 0.131 | 0.112 | 0.104 | 0.0907 | 0.101 | 0.111 | 0.102 | 0.0752 | 0.0868 | 0.0479 | 0.0716 | 0.0698 | 0.162 | 0.968 | 0.0703 | 0.0888 | 0.0655
5 | IA-LM | – | – | – | – | – | – | – | – | – | – | 0.0819 | 0.067 | 0.0525 | 0.0618 | 0.0601 | 0.0757 | 0.0841 | 0.0585 | 0.0612 | 0.0387
6 | LC-2-ad | 0.238 | 0.222 | 0.223 | 0.232 | 0.231 | 0.282 | 0.295 | 0.277 | 0.179 | 0.227 | 0.113 | 0.122 | 0.106 | 0.112 | 0.122 | 0.131 | 0.155 | 0.11 | 0.099 | 0.146
7 | LCLC-97TM1 | 0.0885 | 0.152 | 0.0765 | 0.0664 | 0.0773 | 0.111 | 0.175 | 0.185 | 0.138 | 0.158 | 0.0934 | 0.101 | 0.0997 | 0.0662 | 0.107 | 0.117 | 0.176 | 0.1 | 0.105 | 0.108
8 | LCLC-103H | 0.303 | 0.622 | 0.324 | 0.357 | 0.256 | 0.178 | 0.22 | 0.217 | 0.2 | 0.19 | – | – | – | – | – | 0.389 | 0.99 | 0.262 | 0.309 | 0.238
9 | LK-2 | 0.174 | 0.187 | 0.184 | 0.146 | 0.159 | 0.141 | 0.174 | 0.177 | 0.167 | 0.142 | 0.171 | 0.25 | 0.201 | 0.144 | 0.199 | 0.14 | 0.154 | 0.18 | 0.114 | 0.125
10 | LOU-NH91 | 0.632 | 0.6 | 0.583 | 0.512 | 0.452 | 0.412 | 0.476 | 0.447 | 0.388 | 0.396 | 0.399 | 0.434 | 0.487 | 0.383 | 0.357 | 0.466 | 0.509 | 0.424 | 0.407 | 0.422
11 | LU99A | 0.186 | 0.405 | 0.183 | 0.152 | 0.146 | 0.186 | 0.182 | 0.161 | 0.162 | 0.177 | 0.153 | 0.132 | 0.136 | 0.128 | 0.172 | 0.189 | 0.132 | 0.117 | 0.155 | 0.172
12 | LXF-289 | 0.284 | 0.553 | 0.206 | 0.221 | 0.176 | 0.2 | 0.223 | 0.222 | 0.146 | 0.0943 | 0.322 | 0.278 | 0.275 | 0.24 | 0.14 | 0.508 | 0.325 | 0.248 | 0.226 | 0.131
13 | NCI-H441 | 0.143 | 0.173 | 0.154 | 0.11 | 0.131 | 0.181 | 0.173 | 0.16 | 0.143 | 0.168 | – | – | – | – | – | 0.145 | 0.15 | 0.117 | 0.0833 | 0.108
14 | NCI-H522 | 0.367 | 0.334 | 0.241 | 0.271 | 0.364 | – | 0.341 | 0.495 | – | 0.561 | – | – | – | – | – | – | – | – | – | –
15 | NCI-H1299 | – | – | – | – | – | – | – | – | – | – | 0.192 | 0.221 | 0.197 | 0.185 | 0.143 | 0.0879 | 0.112 | 0.133 | 0.152 | 0.145
16 | NCI-H1563 | – | – | – | – | – | 0.5 | 0.541 | 0.506 | 0.541 | 0.542 | 0.626 | 0.61 | 0.573 | 0.598 | 0.623 | 0.684 | 0.541 | 0.563 | 0.612 | 0.629
17 | NCI-H1648 | 0.408 | 0.403 | 0.289 | 0.302 | 0.31 | 0.309 | 0.279 | 0.351 | 0.314 | 0.307 | – | – | – | – | – | – | – | – | – | –
18 | NCI-H1650 | 0.131 | 0.176 | 0.143 | 0.177 | 0.146 | 0.158 | 0.216 | 0.17 | 0.152 | 0.184 | 0.257 | 0.204 | 0.192 | 0.267 | 0.199 | – | – | – | – | –
19 | NCI-H1703 | – | – | – | – | – | – | – | – | – | – | 0.185 | 0.153 | 0.17 | 0.168 | 0.178 | 0.0702 | 0.0548 | 0.068 | 0.0799 | 0.121
20 | NCI-H2170 | 0.684 | 0.869 | 0.186 | 0.174 | 0.109 | 0.34 | 0.294 | 0.237 | 0.217 | 0.158 | 0.24 | 0.2 | 0.203 | 0.192 | 0.188 | – | – | – | – | –
21 | NCI-H2342 | 0.249 | 0.303 | 0.227 | 0.253 | 0.272 | 0.288 | 0.263 | 0.27 | 0.264 | 0.262 | – | – | – | – | – | – | – | – | – | –
